# Biological target: human DGKζ (Homo sapiens (Human), UniProt Q13574)
# Assay: Human DGKζ kinase activity inhibition assay (ADP-Glo)
# Type: biochemical
# Settings: in vitro human DGKζ kinase activity inhibition assay; read-out: IC50
# In short: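 Enzyme was C-terminally FLAG-tagged full-length recombinant human DGKζ from baculovirus-infected insect cells. Substrate preparation used octyl-β-D-glucopyranoside in 50 mM MOPS pH 7.4 with sonication; ADP generated was quantified by ADP-Glo luminescence as activity measure.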
# Chain of human DGKζ (Q13574 other isoform, or with tags, fused parts or gaps): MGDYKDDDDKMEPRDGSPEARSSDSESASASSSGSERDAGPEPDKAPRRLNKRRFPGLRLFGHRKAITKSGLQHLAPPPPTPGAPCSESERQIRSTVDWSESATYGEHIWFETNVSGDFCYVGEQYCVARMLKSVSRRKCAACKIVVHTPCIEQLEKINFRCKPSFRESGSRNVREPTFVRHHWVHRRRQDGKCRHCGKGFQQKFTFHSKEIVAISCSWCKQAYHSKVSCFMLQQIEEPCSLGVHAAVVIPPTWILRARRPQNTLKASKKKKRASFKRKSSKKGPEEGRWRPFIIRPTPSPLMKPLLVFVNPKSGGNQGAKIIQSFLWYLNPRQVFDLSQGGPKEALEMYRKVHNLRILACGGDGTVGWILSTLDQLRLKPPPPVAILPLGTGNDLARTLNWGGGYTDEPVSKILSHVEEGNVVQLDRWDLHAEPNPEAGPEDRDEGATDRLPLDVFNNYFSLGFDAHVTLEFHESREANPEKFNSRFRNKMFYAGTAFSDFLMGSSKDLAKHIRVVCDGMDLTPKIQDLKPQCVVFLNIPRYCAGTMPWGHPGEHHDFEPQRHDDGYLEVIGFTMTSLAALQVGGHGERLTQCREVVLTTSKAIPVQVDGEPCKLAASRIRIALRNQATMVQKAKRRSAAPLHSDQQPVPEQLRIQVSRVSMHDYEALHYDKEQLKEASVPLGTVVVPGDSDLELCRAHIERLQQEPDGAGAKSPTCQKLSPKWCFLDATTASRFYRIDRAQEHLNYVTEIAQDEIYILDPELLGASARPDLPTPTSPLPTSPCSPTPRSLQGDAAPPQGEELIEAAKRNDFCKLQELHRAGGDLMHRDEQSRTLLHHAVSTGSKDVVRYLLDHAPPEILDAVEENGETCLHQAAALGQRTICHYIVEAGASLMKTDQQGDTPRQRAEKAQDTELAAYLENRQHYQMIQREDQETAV
row,Structure (SMILES),IC50 [nM]
1,"CCOC(=O)COc1ccc(C(=O)c2sc(N(c3ccc(F)cc3)C(C)C(N)=O)nc2N)cc1 (single isomer, unassigned; enantiomer 2) [Example 81.2, ethyl 2-[4-[4-amino-2-(4-fluoro-N-[2-amino-1-methyl-2-oxo-ethyl]anilino)thiazole-5-carbonyl]phenoxy]acetate (enantiomer 2)]",10.1
2,"CC(C(N)=O)N(c1ccc(F)cc1)c1nc(N)c(C(=O)c2ccc(N3CCC(C)(C#N)CC3)nc2)s1 (single isomer, unassigned; enantiomer 2) [Example 285.2, 2-(N-[4-amino-5-[6-(4-cyano-4-methyl-1-piperidyl)pyridine-3-carbonyl]thiazol-2-yl]-4-fluoro-anilino)propanamide (enantiomer 2)]",432
3,"C[C@H](C(N)=O)N(c1ccc(F)c(F)c1)c1nc(N)c(C(=O)c2ccc(OC(F)F)cc2)s1 [Example 49.2, (R)-2-(N-[4-amino-5-[4-(difluoromethoxy)benzoyl]thiazol-2-yl]-3,4-difluoro-anilino)propanamide]",2.1
4,"COc1ccc(C(=O)c2sc(N(c3ccc(Cl)c(F)c3)[C@H](C)C(N)=O)nc2N)cc1 [Example 59.1, (R)-2-(N-[4-amino-5-(4-methoxybenzoyl)thiazol-2-yl]-4-chloro-3-fluoro-anilino)propanamide]",4
5,"C[C@H](C(N)=O)N(c1ccc(F)cc1)c1nc(N)c(C(=O)c2ccccc2)s1 [Example 61.2, (R)-2-(N-(4-amino-5-benzoyl-thiazol-2-yl)-4-fluoro-anilino)propanamide]",108

# Next, values leading:
row,IC50 [nM],Structure (SMILES)
1,18,"CC(C(N)=O)N(c1ccc(F)c(F)c1)c1nc(N)c(C(=O)c2ccc(O)cc2)s1 (single isomer, unassigned; enantiomer 1) [Example 287, 2-(N-[4-amino-5-(4-hydroxybenzoyl)thiazol-2-yl]-3,4-difluoro-anilino)propanamide (enantiomer 1)]"
2,10,"CC(C(N)=O)N(c1ccc(Cl)c(F)c1)c1nc(N)c(C(=O)c2ccc(O)cc2)s1 (single isomer, unassigned; enantiomer 1) [Example 289, 2-(N-[4-amino-5-(4-hydroxybenzoyl)thiazol-2-yl]-4-chloro-3-fluoro-anilino)propanamide (enantiomer 1)]"
3,3440,"CC(C(N)=O)N(c1ccc(F)c(F)c1)c1nc(N)c(C(=O)c2ccc(O)cc2)s1 (single isomer, unassigned; enantiomer 2) [Example 288, 2-(N-[4-amino-5-(4-hydroxybenzoyl)thiazol-2-yl]-3,4-difluoro-anilino)propanamide (enantiomer 2)]"
4,936,"CC(C(N)=O)N(c1ccc(Cl)c(F)c1)c1nc(N)c(C(=O)c2ccc(O)cc2)s1 (single isomer, unassigned; enantiomer 2) [Example 290, 2-(N-[4-amino-5-(4-hydroxybenzoyl)thiazol-2-yl]-4-chloro-3-fluoro-anilino)propanamide (enantiomer 2)]"
